# Results taken from patent publication US7985455B2, “Polymerizable liquid crystal compound, liquid crystal composition, and polymer” (JNC Corporation, priority 2007, dated 2011).
# Experiment: Solubility in PGMEA: deposition of crystals from a PGMEA solution allowed to stand at room temperature over night
# Assay type: physicochemical
# Conditions: 30% by weight PGMEA solution, room temperature (20° C.) over night
# Procedure: The compound (1-8) was dissolved in PGMEA to prepare a 20% by weight PGMEA solution.
# The compound (1-19) was dissolved in PGMEA to prepare a 20% by weight PGMEA solution.
# The compound (1-42) was dissolved in PGMEA to prepare a 30% by weight PGMEA solution.
# The compound (1-52) was dissolved in PGMEA to prepare a 30% by weight PGMEA solution.
# The compound (M1-3) was dissolved in PGMEA to prepare a 10% by weight PGMEA solution. […] It is understood from the comparison between the result and Example 1 that the compound of the invention having an oxycarbonyloxy bonding group instead of an ether bond is excellent in solubility in PGMEA. Furthermore, it is understood from the comparison between Example 5 and Example 6 that the solubility in PGMEA is further enhanced by introducing an ether structure (—O—) to the alkylene in the side chain.
structure (smiles),measurement,value
C=CC(=O)OCCOCCOC(=O)Oc1ccc(C(=O)Oc2ccc3c(c2)C(C)c2cc(OC(=O)c4ccc(OC(=O)OCCOCCOC(=O)C=C)cc4)ccc2-3)cc1 [Compound 1-42],deposition of crystals from PGMEA solution,no deposition of crystals
